# Source: patent US20250221410A1, “SUBSTITUTED 2-C-AZINES AND SALTS THEREOF, AND USE THEREOF AS HERBICIDAL ACTIVE SUBSTANCES” (BAYER AKTIENGESELLSCHAFT, priority 2022, published 2025)
# Experiments:
# Assay type in all cases: in vivo
# [1] = tested on: SETVI: Setaria viridis; test: Pre-emergence herbicide efficacy at 1280 g/ha, SETVI; conditions: visual scoring vs untreated controls
# Description: (§1) Seeds of mono- and dicotyledonous weed plants were placed in plastic pots in sandy loam soil (doubly sown with one species each of mono- or dicotyledonous weed plants per pot) and covered with soil. The compounds of the invention, formulated in the form of wettable powders (WP) or as emulsion concentrates (EC), were then applied to the surface of the covering soil as aqueous suspension or emulsion with addition of 0.5% additive at a water application rate of 600 litres per hectare (converted). After the treatment, the pots were placed in a greenhouse and kept under good growth conditions for the test plants. After about 3 weeks, the efficacy of the preparations was scored visually in comparison with untreated controls as percentages. For example, 100% activity=the plants have died, 0% activity=like control plants. Tables C1 to C12 below show the effects of selected compounds of the general formula (I) according to Table 1 on various harmful plants and at an application rate corresponding to 1280 g/ha, which were obtained by the trial procedure specified above.
# [2] = tested on: STEME: Stellaria media; test: Post-emergence herbicidal efficacy at 1280 g/ha, STEME; conditions: visual rating about 3 weeks after treatment vs untreated controls
# Procedure, shortened: (§2)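 Plants treated 2–3 weeks post-sowing, one-leaf stage, foliar spray of WP or EC preparations with 0.5% additive at a water rate equivalent to 600 L/ha. Kept under optimum greenhouse conditions ~3 weeks, then scored visually on a 0–100% scale.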
# [3] = tested on: KCHSC: Kochia scoparia; test: Pre-emergence herbicide efficacy at 1280 g/ha, KCHSC; conditions: visual scoring after about 3 weeks vs untreated controls
# Description: as §1
# [4] = tested on: DIGSA: Digitaria sanguinalis; test: Post-emergence herbicidal efficacy at 1280 g/ha, DIGSA; conditions: rated visually after about 3 weeks vs untreated controls, 100% = plants have died, 0% = like control plants
# Procedure: (§3) Seeds of mono- and dicotyledonous weed plants were placed in plastic pots in sandy loam soil (doubly sown with in each case one species of mono- or dicotyledonous weed plants per pot), covered with soil and cultivated in a greenhouse under controlled growth conditions. 2 to 3 weeks after sowing, the test plants were treated at the one-leaf stage. The compounds of the invention, formulated in the form of wettable powders (WP) or as emulsion concentrates (EC), were applied to the green parts of the plants as aqueous suspension or emulsion with addition of 0.5% additive at a water application rate equivalent to 600 litres per hectare. After the test plants had been kept in the greenhouse under optimum growth conditions for about 3 weeks, the activity of the preparations was rated visually in comparison to untreated controls. For example, 100% activity=the plants have died, 0% activity=like control plants. Tables A1 to A12 below show the effects of selected compounds of the general formula (I) according to Table 1 on various harmful plants and at an application rate corresponding to 1280 g/ha, which were obtained by the trial procedure specified above.
# [5] = tested on: AMARE: Amaranthus retroflexus; test: Post-emergence herbicidal efficacy at 1280 g/ha, AMARE; conditions: rated visually after about 3 weeks vs untreated controls, 100% = plants have died, 0% = like control plants
# Procedure, shortened: as §2
# [6] = tested on: VERPE: Veronica persica; test: Post-emergence herbicidal efficacy at 1280 g/ha, VERPE; conditions: visual rating about 3 weeks after treatment vs untreated controls
# Procedure, shortened: as §2
# [7] = tested on: ABUTH: Abutilon theophrasti; test: Pre-emergence herbicide efficacy at 1280 g/ha, ABUTH; conditions: visual scoring after about 3 weeks vs untreated controls
# Description: as §1
# [8] = tested on: AMARE: Amaranthus retroflexus; test: Pre-emergence herbicide efficacy at 1280 g/ha, AMARE; conditions: visual scoring after about 3 weeks vs untreated controls
# Procedure, shortened: (§4)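 Weed seeds were sown and covered with soil in pots, then treated on the soil surface with formulated compound (WP or EC, 0.5% additive, 600 L/ha water). Visual % damage relative to untreated pots was rated about 3 weeks later under greenhouse conditions, 0% meaning no effect and 100% plant death.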
# [9] = tested on: KCHSC: Kochia scoparia; test: Post-emergence herbicidal efficacy at 1280 g/ha, KCHSC; conditions: visual rating about 3 weeks after treatment vs untreated controls
# Procedure, shortened: as §2
# [10] = tested on: POAAN: Poa annua; test: Pre-emergence herbicide efficacy at 1280 g/ha, POAAN; conditions: visual scoring after about 3 weeks vs untreated controls
# Procedure, shortened: as §4
# [11] = tested on: ECHCG: Echinochloa crus-galli; test: Pre-emergence herbicide efficacy at 1280 g/ha, ECHCG; conditions: visual scoring after about 3 weeks vs untreated controls
# Description: as §1
# [12] = tested on: STEME: Stellaria media; test: Pre-emergence herbicide efficacy at 1280 g/ha, STEME; conditions: visual scoring vs untreated controls
# Procedure, shortened: as §4
# [13] = tested on: POAAN: Poa annua; test: Post-emergence herbicidal efficacy at 1280 g/ha, POAAN; conditions: visual rating about 3 weeks after treatment vs untreated controls
# Procedure, shortened: as §2
# [14] = tested on: ABUTH: Abutilon theophrasti; test: Post-emergence herbicidal efficacy at 1280 g/ha, ABUTH; conditions: rated visually after about 3 weeks vs untreated controls, 100% = plants have died, 0% = like control plants
# Procedure, shortened: as §2
# [15] = tested on: DIGSA: Digitaria sanguinalis; test: Pre-emergence herbicide efficacy at 1280 g/ha, DIGSA; conditions: visual scoring after about 3 weeks vs untreated controls
# Procedure, shortened: as §4
# [16] = tested on: VERPE: Veronica persica; test: Pre-emergence herbicide efficacy at 1280 g/ha, VERPE; conditions: visual scoring vs untreated controls
# Description: as §1
# [17] = tested on: SETVI: Setaria viridis; test: Post-emergence herbicidal efficacy at 1280 g/ha, SETVI; conditions: visual rating about 3 weeks after treatment vs untreated controls
# Procedure: as §3
# [18] = tested on: ECHCG: Echinochloa crus-galli; test: Post-emergence herbicidal efficacy at 1280 g/ha, ECHCG; conditions: rated visually after about 3 weeks vs untreated controls, 100% = plants have died, 0% = like control plants
# Procedure: as §3
SMILES,Pre-emergence efficacy against SETVI in % [1],Post-emergence efficacy against STEME [2],Pre-emergence efficacy against KCHSC [3],Post-emergence efficacy at 1280 g/ha against DIGSA in % [4],Post-emergence efficacy at 1280 g/ha against AMARE in % [5],Post-emergence efficacy against VERPE [6],Pre-emergence efficacy against ABUTH [7],Pre-emergence efficacy against AMARE [8],Post-emergence efficacy against KCHSC [9],Pre-emergence efficacy against POAAN [10],Pre-emergence efficacy against ECHCG [11],Pre-emergence efficacy against STEME in % [12],Post-emergence efficacy against POAAN [13],Post-emergence efficacy at 1280 g/ha against ABUTH in % [14],Pre-emergence efficacy against DIGSA [15],Pre-emergence efficacy against VERPE in % [16],Post-emergence efficacy against SETVI [17],Post-emergence efficacy at 1280 g/ha against ECHCG in % [18]
Fc1cnc(Cc2ccccc2Oc2ncc(Cl)cc2F)nc1 [Example 1-90],90%,90%,100%,90%,100%,100%,100%,100%,100%,100%,100%,90%,100%,90%,100%,100%,,
Fc1ccc(Cc2ccccc2Cc2ncc(Cl)cn2)cc1 [Example 1-23],100%,90%,90%,100%,100%,100%,100%,100%,90%,90%,100%,100%,100%,100%,100%,100%,90%,100%
Cc1cccc(Cc2ncc(Cl)cn2)c1Oc1ccc(F)cc1 [Example 1-31],100%,90%,,,90%,90%,,90%,,100%,100%,,90%,100%,100%,,90%,100%
Fc1cnc(Cc2ccccc2-c2ccc(F)c(F)c2)nc1 [Example 1-27],100%,90%,90%,90%,100%,90%,100%,100%,90%,90%,90%,,90%,90%,100%,100%,90%,
Fc1ccc(Oc2c(Br)cccc2Cc2ncc(Cl)cn2)cc1 [Example 1-37],100%,90%,,90%,100%,100%,,100%,100%,90%,90%,90%,100%,100%,100%,,,100%
FC(F)(F)CCCc1ccccc1Cc1ncc(Cl)cn1 [Example 1-1],90%,100%,90%,90%,100%,100%,,100%,90%,90%,90%,,90%,90%,100%,,,
N#Cc1cccc(Cc2ncc(Cl)cn2)c1Oc1ccc(F)cc1 [Example 1-38],100%,100%,,90%,100%,100%,,100%,100%,100%,100%,100%,90%,100%,100%,100%,90%,100%
Fc1ccc(-c2ccccc2Cc2ncc(Cl)cn2)cc1F [Example 1-26],90%,100%,100%,90%,100%,100%,90%,100%,100%,100%,90%,,90%,100%,100%,,90%,90%
Fc1ccc(Oc2ccccc2Cc2ncc(Br)cn2)cc1 [Example 1-87],100%,90%,,,100%,100%,,100%,100%,,90%,,100%,100%,100%,,90%,90%
Fc1ccc(Sc2ccccc2Cc2ncc(Cl)cn2)cc1 [Example 1-99],100%,100%,,90%,100%,90%,90%,100%,100%,100%,100%,100%,100%,90%,100%,,90%,100%
